The results in this text go back to patent US20240408169A1 (priority 2023, published 2024).

*1 amine or outer side, *2 acyl side, *3 side chain or, on linkers, in order; H or OH if unused. Where a SMILES comes first, the peptide text is derived from it. Bridges are numbered along the chain shown (N, C = ends). [ ]: non-standard residue; d: D form. The star is where a group is joined. X86 = CN([C@@H](Cc1cc(Cl)ccc1-c1cnn(C2CCOCC2)c1)C(=O)[*:2])[*:1]; NMehhhLys(Me) = CN([C@@H](CCCCCCCN(C)[*:3])C(=O)[*:2])[*:1]; NMe3Pal(2-OiPr,5-Cl) = CN[C@@H](Cc1cc(Cl)cnc1OC(C)C)C(=O)O; NMe(hhhLys) = CN([C@@H](CCCCCCCN[*:3])C(=O)[*:2])[*:1]; Cyclobutanecarbonyl(1-CF3) = O=C(C1(C(F)(F)F)CCC1)*; X94 = CN([C@@H](Cc1cc(F)ccc1C1CC1)C(=O)[*:2])[*:1]; cBuCO(3,3-F2-1-CF3) = O=C(C1(C(F)(F)F)CC(F)(F)C1)*; Pro(trans-4-F) = O=C(O)[C@@H]1C[C@@H](F)CN1; Gly(cPr) = N[C@H](C(=O)O)C1CC1

In assay [1] the target is T1, CyclinE1/CDK2 (Homo sapiens, UniProt P24864).
T1 construct: purchased Eurofins, discovery 14-475
In words: Fluorescence Polarization (FP) competitive binding assay, Cyclin E1/Cdk2.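 Also: readings taken after two-hour equilibration at room temperature in HEPES buffer with NaCl, DTT, NP-40 and BSA, IC50 fitted from eight-concentration serial dilution series.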 The settings on record: 10 nM Cyclin E1/Cdk2, 2 nM FAM probe; average of 2-3 independent experiments; read-out: Cyclin E FP IC50. On the technique in general: Polarisation of emitted light reports the rotation of a fluorescent probe.

The subject of assay [2] is NCI-H1048 cells. Put plainly: MTT proliferation assay, NCI-H1048.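 Also: Dose-response in 96-well plates over 8 or 10 concentration points, with exposure spanning 3-4 cell doublings.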 The settings on record: 5 days compound exposure, 1:3 serial dilution starting at 10 μM. The format is cell-based.
The target of assay [3] is T2, CyclinB1/CDK1 (Homo sapiens, UniProt P14635).
T2 construct: purchased Eurofins, discovery 14-450
Put plainly: Fluorescence Polarization (FP) competitive binding assay, Cyclin B1/Cdk1.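 Also: fluorescence polarization read after equilibration at room temperature, with IC50 taken from serially diluted dose-response curves.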 The settings on record: 10 nM Cyclin B1/Cdk1, 2 nM FAM probe; average of 2-3 independent experiments; read-out: Cyclin B FP IC50.

For assay [4], the system named is OVCAR3 cells. Put plainly: MTT proliferation assay, OVCAR3.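 Also: compound given as an 8- or 10-point series, one day after plating, with exposure covering roughly 3-4 cell doublings.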 The format is cell-based. The settings on record: 5 days compound exposure, 1:3 serial dilution starting at 10 μM. Background: Formazan colour is commonly taken as a measure of viable cells.
For assay [5], the system named is WI-38 cells. In words: MTT proliferation assay, WI-38.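 Also: Eight- or ten-point dilution series, with exposure length chosen to span about three to four cell doublings.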 Type of assay: cell-based. Particulars: 3 days compound exposure, 1:3 serial dilution starting at 10 μM.
For assay [6], the target named is T3, CyclinA2/CDK2 (Homo sapiens, UniProt P20248).
T3 construct: purchased CRELUX Protein Services
Put plainly: Fluorescence Polarization (FP) competitive binding assay, Cyclin A2/Cdk2.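 Also: plates equilibrated two hours at room temperature before polarization reading, IC50 fitted from eight-concentration compound titration curves.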 The settings on record: 8 nM Cyclin A2/Cdk2, 2 nM FAM probe; average of 2-3 independent experiments; read-out: Cyclin A FP IC50.

By IC50 is commonly meant the point on the concentration scale where inhibition reaches its midpoint. The GI50 is the concentration that inhibits growth by half. High values mean less potent growth inhibition, low ones more potent growth inhibition. Regarding `CC(C)C[C@@H]1NC(=O)[C@@H](N(C)C(=O)[C@@H](NC(=O)[C@@H]2C[C@@H](F)CN2C(=O)C2(C(F)(F)F)CC(F)(F)C2)C2CC2)CCCCCCCN(C)C(=O)[C@H](Cc2cc(Cl)ccc2-c2cnn(C3CCOCC3)c2)N(C)C1=O` [Example 114] ({cBuCO(3,3-F2-1-CF3)}-[Pro(trans-4-F)][Gly(cPr)][NMehhhLys(Me)]L[X86]; lactam 3-C), the results for the IC50 in assay [1], in assay [3] and in assay [6] were 400 nM, 20 nM and 20 nM, respectively. Further, the GI50 in assay [2] was 10 nM; in assay [4], 10 nM; in assay [5] it was 7190 nM.

Consider `Cc1nnc(-c2ccc(Cl)cc2C[C@H]2C(=O)N(C)CCCCC=CC[C@H](N(C)C(=O)[C@@H](NC(=O)[C@@H]3C[C@@H](F)CN3C(=O)C3(C(F)(F)F)CCC3)C3CC3)C(=O)N[C@@H](CC(C)C)C(=O)N2C)o1` [Example 115], for which the IC50 turned out to be 170 nM in assay [1], 20 nM in assay [3] and 40 nM in assay [6]. In addition, the GI50 amounted to 70 nM in assay [2], 60 nM in assay [4] and 11000 nM in assay [5].

For the compound `CC(C)C[C@@H]1NC(=O)[C@@H](N(C)C(=O)[C@@H](NC(=O)[C@@H]2C[C@@H](F)CN2C(=O)C2(C(F)(F)F)CCC2)C2CC2)CCCCCCCN(C)C(=O)[C@H](Cc2cc(Cl)cnc2OC(C)C)N(C)C1=O` [Example 119] ({Cyclobutanecarbonyl(1-CF3)}-[Pro(trans-4-F)][Gly(cPr)][NMehhhLys(Me)]L[NMe3Pal(2-OiPr,5-Cl)]; lactam 3-C), the IC50 is 100 nM in assay [1], 20 nM in assay [3] and 30 nM in assay [6]. Further, the GI50 stood at 250 nM in assay [2], 300 nM in assay [4] and 8710 nM in assay [5].

Consider `CC(C)C[C@@H]1NC(=O)[C@@H](N(C)C(=O)[C@@H](NC(=O)[C@@H]2C[C@@H](F)CN2C(=O)C2(C(F)(F)F)CC(F)(F)C2)C2CC2)CCCCCCCN(C)C(=O)[C@H](Cc2cc(F)ccc2C2CC2)N(C)C1=O` [Example 121] ({cBuCO(3,3-F2-1-CF3)}-[Pro(trans-4-F)][Gly(cPr)][NMehhhLys(Me)]L[X94]; lactam 3-C), for which the IC50 was 130 nM in assay [1], 20 nM in assay [3] and 50 nM in assay [6]. The GI50 in assay [2] was 40 nM; in assay [4], 70 nM; in assay [5], 7610 nM.

For the compound `CC(C)C[C@@H]1NC(=O)[C@@H](N(C)C(=O)[C@@H](NC(=O)[C@@H]2C[C@@H](F)CN2C(=O)C2(C(F)(F)F)CC(F)(F)C2)C2CC2)CC=CCCCCNC(=O)[C@H](Cc2cc(Cl)cnc2OC2CC2)N(C)C1=O` [Example 129], the IC50 in assay [1] was found to be 820 nM; in assay [3] it was 20 nM; in assay [6], 210 nM. Besides, the GI50 was found to be 1460 nM in assay [2], 2580 nM in assay [4] and 6880 nM in assay [5].

As to `CC(C)C[C@@H]1NC(=O)[C@@H](N(C)C(=O)[C@@H](NC(=O)[C@@H]2N[C@@H](F)CC2C(=O)C2(C(F)(F)F)CC(F)(F)C2)C2CC2)CC=CCCCCN(C)C(=O)[C@H](Cc2cc(Cl)cnc2OC(C)C)N(C)C1=O` (stereo partly drawn) [Example 130], the IC50 in assay [1] is 310 nM; in assay [3], 20 nM; in assay [6], 70 nM. In addition, the values for the GI50 in assay [2], in assay [4] and in assay [5] were 700 nM, 1550 nM and 8990 nM, respectively.

In the case of `CC(C)C[C@@H]1NC(=O)[C@@H](N(C)C(=O)[C@@H](NC(=O)[C@@H]2C[C@@H](F)CN2C(=O)C2(C(F)(F)F)CCC2)C2CC2)CC=CCCCCN(C)C(=O)[C@H](Cc2cc(Cl)cnc2OC(C)C)N(C)C1=O` [Example 137], the IC50 in assay [1] stood at 130 nM; in assay [3] it was 20 nM; in assay [6], 60 nM. In addition, the GI50 in assay [2] was determined as 600 nM; in assay [4], 760 nM; in assay [5] it was 4580 nM.

For `CC(C)C[C@@H]1NC(=O)[C@@H](N(C)C(=O)[C@@H](NC(=O)[C@@H]2C[C@@H](F)CN2C(=O)C2(C(F)(F)F)CCC2)C2CC2)CCCCCCCNC(=O)[C@H](Cc2cc(Cl)cnc2OC(C)C)N(C)C1=O` [Example 138] ({Cyclobutanecarbonyl(1-CF3)}-[Pro(trans-4-F)][Gly(cPr)][NMe(hhhLys)]L[NMe3Pal(2-OiPr,5-Cl)]; lactam 3-C), the results for the IC50 in assay [1], in assay [3] and in assay [6] were 110 nM, 20 nM and 30 nM, respectively. The GI50 in assay [2] worked out at 200 nM; in assay [4], 280 nM; in assay [5] it was 6670 nM.
